These results are taken from ChEMBL document CHEMBL2010679, “Development of a new class of aromatase inhibitors: design, synthesis and inhibitory activity of 3-phenylchroman-4-one (isoflavanone) derivatives” (Bioorg Med Chem, 2012).

The target in test [1] is T1, Aromatase (Homo sapiens, UniProt P11511).
T1 sequence (P11511 whole entry): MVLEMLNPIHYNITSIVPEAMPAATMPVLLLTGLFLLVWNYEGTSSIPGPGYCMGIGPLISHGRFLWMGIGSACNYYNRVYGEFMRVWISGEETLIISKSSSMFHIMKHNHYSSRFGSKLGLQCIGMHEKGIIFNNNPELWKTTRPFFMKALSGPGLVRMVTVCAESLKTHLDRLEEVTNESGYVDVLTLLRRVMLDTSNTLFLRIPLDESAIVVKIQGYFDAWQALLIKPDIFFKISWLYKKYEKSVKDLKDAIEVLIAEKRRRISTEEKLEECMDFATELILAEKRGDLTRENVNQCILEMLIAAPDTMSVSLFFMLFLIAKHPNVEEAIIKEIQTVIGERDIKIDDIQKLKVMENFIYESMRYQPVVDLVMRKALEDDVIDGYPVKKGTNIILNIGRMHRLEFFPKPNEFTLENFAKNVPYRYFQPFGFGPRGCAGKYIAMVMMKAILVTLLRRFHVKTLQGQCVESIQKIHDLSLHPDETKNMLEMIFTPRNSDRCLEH
Briefly: Inhibition of human recombinant aromatase expressed in baculovirus/insect cells using 7-methoxy-trifluoromethylcoumarin as substrate after 30 mins by fluorescence-based spectrophotometry.

Test [2] addresses T1, Aromatase.

A value given as a limit tells only on which side of the number the result lay.

In general, IC50 refers to the concentration that inhibits the measured activity by half. As to `COc1ccccc1C1COc2ccccc2C1=O` (racemic), the 50% inhibitory concentration (IC50) on Aromatase [1] (read-out: IC50) is 97 µM.
Turning to `O=C1c2ccccc2OCC1c1cc2ccccc2c2ccccc12` (racemic), the IC50 entry on Aromatase [1] is recorded as “Not Active”.
Consider `COc1cccc(C2COc3ccccc3C2=O)c1` (racemic), for which, on Aromatase [1] (read-out: IC50), the IC50 was 99 µM.
In the case of `O=C1c2ccccc2OCC1c1ccc(-c2ccccc2)cc1` (racemic), the concentration for half-maximal inhibition (IC50) entry at Aromatase [1] is given as “Not Active”.
Regarding `O=C1c2ccccc2OCC1c1ccccc1` (racemic) [ISOFLAVANONE], the half-inhibitory concentration (IC50) at Aromatase [1] (read-out: IC50) was 29 µM.
On the same count and under the same terms, the same measure for `COc1ccc2c(c1)OCC(c1ccccc1)C2=O` (racemic): 41 µM.
On the same count and under the same terms, the same measure for `Cc1ccc2c(c1)C(=O)C(c1ccccc1)CO2` (racemic): 44 µM; for `O=C1c2cc(F)ccc2OCC1c1ccccc1` (racemic): 32 µM.
As for `COc1ccc2c(c1)C(=O)C(c1ccccc1)CO2` (racemic), the concentration for half-maximal inhibition (IC50) on Aromatase [1] (read-out: IC50) came to 0.26 µM.
On the same count and under the same terms, the same measure for `Cc1ccc2c(c1)OCC(c1ccccc1)C2=O` (racemic): 18 µM; for `CC(C)(C)c1ccc2c(c1)C(=O)C(c1ccccc1)CO2` (racemic): 61 µM; for `O=C1c2cc(Cl)ccc2OCC1c1ccccc1` (racemic): 5.1 µM.
Still for that read-out and setting: the figure for `COc1cc(OC)cc(C2COc3ccccc3C2=O)c1` (racemic) is 11 µM.
Consider `O=C1c2ccccc2OC(O)C1c1ccccc1` (centres undefined), for which the IC50 on Aromatase [2] is 170 µM.
Turning to `Cc1cccc(C2COc3ccccc3C2=O)c1` (racemic), the IC50 on Aromatase [1] (read-out: IC50) turned out to be 20 µM.
Take `Cc1ccc(C2COc3ccccc3C2=O)cc1` (racemic): at Aromatase [1] (read-out: IC50), the IC50 is 41 µM.
The same measure, in the same setting: the same measure for `O=C1c2cc(Br)ccc2OCC1c1ccccc1` (racemic): 29 µM; for `O=C1c2ccccc2OCC1c1ccc(Oc2ccccc2)cc1` (racemic): 2.4 µM; for `COc1ccc(C2COc3ccccc3C2=O)cc1` (racemic): 24 µM.
As for `O=C1c2c(ccc3ccccc23)OCC1c1ccccc1` (racemic), the IC50 at Aromatase [1] (read-out: IC50) amounted to 20 µM.
Still for that read-out and setting: the same measure for `O=C1c2ccccc2OCC1c1cccnc1` (racemic): 5.8 µM; for `O=C1c2ccccc2OCC1c1ccsc1` (racemic): 30 µM.
As for `O=C1c2ccccc2OCC1c1ccc(O)c(O)c1` (centres undefined), on Aromatase [2], the concentration for half-maximal inhibition (IC50) was no less than 200 µM.
`O=C1c2ccccc2OCC1c1ccc(O)cc1` (centres undefined): 160 µM corresponded to half-maximal inhibition against Aromatase [2] (IC50).
